According to PubChem BioAssay (NCI):
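These data come from cells grown in 96-well plates and exposed to compound for 48 hours at five concentrations. Abbreviation: GI50, concentration required for 50% inhibition of growth. TGI: concentration producing complete growth inhibition.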

How the values were obtained:
Assay in all cases: NCI tumour cell line growth inhibition, 48 h
HOP-92 NSCLC = test system: HOP-92 NSCLC
SF-539 CNS = test system: SF-539 CNS
IGROV1 ovarian = test system: IGROV1 ovarian
SNB-19 CNS = test system: SNB-19 CNS
K-562 leukemia = test system: K-562 leukemia
LOX IMVI melanoma = test system: LOX IMVI melanoma
OVCAR-4 ovarian = test system: OVCAR-4 ovarian
HCT-15 colon = test system: HCT-15 colon
A549 NSCLC = test system: A549 NSCLC
COLO 205 colon = test system: COLO 205 colon

SMILES	TGI (HOP-92 NSCLC) [µM]	TGI (SF-539 CNS) [µM]	TGI (IGROV1 ovarian) [µM]	TGI (SNB-19 CNS) [µM]	TGI (K-562 leukemia) [µM]	TGI (LOX IMVI melanoma) [µM]	TGI (OVCAR-4 ovarian) [µM]	TGI (HCT-15 colon) [µM]	TGI (A549 NSCLC) [µM]	TGI (COLO 205 colon) [µM]	GI50 (HOP-92 NSCLC) [µM]	GI50 (SF-539 CNS) [µM]	GI50 (IGROV1 ovarian) [µM]	GI50 (SNB-19 CNS) [µM]	GI50 (K-562 leukemia) [µM]	GI50 (LOX IMVI melanoma) [µM]	GI50 (OVCAR-4 ovarian) [µM]	GI50 (HCT-15 colon) [µM]	GI50 (A549 NSCLC) [µM]	GI50 (COLO 205 colon) [µM]
O=C1CNC(=O)N1	> 11.2	> 1120	> 1120	> 1120	> 630	> 1120	> 1120	> 1120	> 1120	> 1120										
Cc1cc(C)c(S(=O)(=O)N(CCCCCCN)OCCCON(CCCCCCN)S(=O)(=O)c2c(C)cc(C)cc2C)c(C)c1	2.96	3.98	3.22	3.01	> 100	3.19	3.38	3.6	3.24	3.76										
CCOC(=O)c1csc(NC(=O)CCN2CCOCC2)n1	> 100	> 100	> 100	> 100	> 100	> 100	> 100	> 100	> 100	> 100										
Fc1cc(C2=Nn3c(nnc3-c3cc(F)c(Cl)cc3Cl)SC2)c(Cl)cc1Cl	> 100	38	> 100	93.4	> 100	45.6	> 100	70.2	83.5	43.1	11.3	18.9	29.8	22.7	17.8	21.6	34.5	20.2	23.7	19
O=c1n(Cc2ccccc2)c2ccccc2n1CC1CS1 (stereo not given)	> 100	> 100	> 100	> 100	> 100	> 100	> 100	> 100	> 100	> 100										
CC1(C)CCCC2(C)[C@@H]1CC[C@]13C[C@](C)(CC[C@@H]21)[C@@H]3CO (stereo not given in full)	> 100	> 100	> 100	> 100	> 100	> 100	> 100	> 100	> 100	> 100										
